Literature values, collected in patent US20110159118A1, “Screening Method (Metabolite Grid) for Therapeutic Extracts and Molecules for Diabetes” (priority 2000, published 2011).

Tests used:
[1] = system: hyperglycemic rats; conditions: effect comparable to metformin
[2] = system: alloxan diabetic rats
[3] = system: streptozotocin-diabetic mice; conditions: doses of 3.4-13.4 mg/kg, 6 h after the administration

## COc1cc(O)cc2c1C(=O)C(O)(Cc1ccc(O)cc1)O2 (stereo not shown) [Marsupsin, marsupsin]
[1]
  blood glucose level: significantly lowered

## Oc1cc(O)c2c(c1)O[C@H](c1ccc(O)c(O)c1)[C@H](O)C2 [(−)-Epicatechin, (−)-epicatechin]
[2]; 30 mg/kg, i.p., twice daily for 3 days, begun 92 hr after alloxan
  blood glucose levels, control versus treated rats: no significant difference
[2]; given before or within 24 hr after the dose of alloxan
  hyperglycemia: reverse hyperglycemia

## gymnemic acid IV [Gymnemic acids]
[3]
  reduced the blood glucose levels: 13.5-60.0%
